Data reported in patent US10618903B2, “Heteroaryl substituted aminopyridine compounds” (BRISTOL-MYERS SQUIBB COMPANY, priority 2015, dated 2020).

Tests used:
[1] = tested on: IL-6 levels in human whole blood stimulated with a TLR2 agonist; assay: IRAK4 Whole Blood Assay (lipoteichoic acid/TLR2-stimulated IL-6); type: cell-based; details: Homo sapiens, lipoteichoic acid 10 μg/mL, IL-6 readout
How it was run: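 ACD-A-anticoagulated human whole blood was preincubated with compounds for 60 min at 37 °C under 5% CO2. It was then stimulated with 10 μg/mL lipoteichoic acid (final) in RPMI for 5 h. IL-6 in plasma supernatants was measured by flow cytometry bead assay.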

[2] = Caco Permeability Assay; type: in vitro ADME; details: human, Caco-2, Caco-2 cells, 3 μM compound
[3] = molecular target: IRAK4 (Homo sapiens (Human), UniProt Q9NWZ3); assay: IRAK4 Inhibition Assay; type: biochemical; details: ATP 500 μM; IRAK4 0.6 nM
Sequence of IRAK4 (Q9NWZ3 whole entry): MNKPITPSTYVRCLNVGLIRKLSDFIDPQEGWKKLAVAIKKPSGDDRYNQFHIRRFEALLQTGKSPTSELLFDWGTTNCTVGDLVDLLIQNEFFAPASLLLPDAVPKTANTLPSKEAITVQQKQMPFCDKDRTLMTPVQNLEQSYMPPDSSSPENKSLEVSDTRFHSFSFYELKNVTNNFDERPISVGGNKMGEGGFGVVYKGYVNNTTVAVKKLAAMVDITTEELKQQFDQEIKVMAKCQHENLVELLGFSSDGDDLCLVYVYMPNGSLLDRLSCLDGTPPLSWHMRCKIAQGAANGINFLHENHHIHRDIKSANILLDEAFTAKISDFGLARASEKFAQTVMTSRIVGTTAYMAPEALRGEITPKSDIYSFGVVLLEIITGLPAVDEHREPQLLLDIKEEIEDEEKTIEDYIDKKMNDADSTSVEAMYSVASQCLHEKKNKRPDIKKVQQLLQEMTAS
How it was run: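 Enzyme 0.6 nM, ATP 500 μM, FL-peptide 1.5 μM, DMSO 1.6%; HEPES pH 7.2/MgCl2/Brij 35/DTT buffer. RT, 60 min, EDTA stop. Mobility-shift product/substrate ratio; % inhib vs no-enzyme and vehicle controls.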

Row | EC50 [1] [µM] | Papp at 2 h, 3 µM [2] [×10⁻⁶ cm/s] | IC50 [3] [µM] | Compound
1 | 0.4 | 24.8 | 0.003 | CC(C)Nc1cc(-c2cnn3cc(Cl)cnc23)ncc1C(=O)NC[C@@H](F)C(C)(C)O [Example 1, (R)-6-(6-chloropyrazolo[1,5-a]pyrimidin-3-yl)-N-(2-fluoro-3-hydroxy-3-methylbutyl)-4-(isopropylamino)nicotinamide]
2 | 0.71 | 24.1 | 0.004 | C[C@@H](CF)Nc1cc(-c2cnn3cc(Cl)cnc23)ncc1C(=O)NC[C@@H](F)C(C)(C)O [Example 32, 6-(6-chloropyrazolo[1,5-a]pyrimidin-3-yl)-N—((R)-2-fluoro-3-hydroxy-3-methylbutyl)-4-(((S)-1-fluoropropan-2-yl)amino)nicotinamide]
3 | 0.4 | 2.8 | 0.004 | CC(C)(O)[C@H](F)CNC(=O)c1cnc(-c2cnn3cc(C#N)cnc23)cc1NC1CCOCC1 [Example 90, (R)-6-(6-cyanopyrazolo[1,5-a]pyrimidin-3-yl)-N-(2-fluoro-3-hydroxy-3-methylbutyl)-4-((tetrahydro-2H-pyran-4-yl)amino)nicotinamide]
4 | 0.3 | 21.3 | 0.002 | CC(C)(F)[C@H](F)CNC(=O)c1cnc(-c2cnc3cc(Cl)cnn23)cc1Nc1cnn(CC(F)F)c1 [Example 263, (R)-6-(7-chloroimidazo[1,2-b]pyridazin-3-yl)-N-(2,3-difluoro-3-methylbutyl)-4-((1-(2,2-difluoroethyl)-1H-pyrazol-4-yl)amino)nicotinamide]
5 | 0.71 | < 1.5 | 0.002 | CC(C)(O)[C@H](F)CNC(=O)c1cnc(-c2cnn3cc(Cl)cnc23)cc1NC12CCC(O)(CC1)C2 [Example 73, (R)-6-(6-chloropyrazolo[1,5-a]pyrimidin-3-yl)-N-(2-fluoro-3-hydroxy-3-methylbutyl)-4-((4-hydroxybicyclo[2.2.1]heptan-1-yl)amino)nicotinamide]
6 | 0.33 | < 1.5 | 0.006 | CC(C)(O)[C@H](F)CNC(=O)c1cnc(-c2cnc3cc(C#N)cnn23)cc1Nc1cc2n(n1)CCN(CC(F)F)C2 [Example 280, (R)-6-(7-cyanoimidazo[1,2-b]pyridazin-3-yl)-4-((5-(2,2-difluoroethyl)-4,5,6,7-tetrahydropyrazolo[1,5-a]pyrazin-2-yl)amino)-N-(2-fluoro-3-hydroxy-3-methylbutyl)nicotinamide]
7 | 0.8 | 16.2 | 0.007 | CC(C)Nc1cc(-c2cnn3cc(C#N)cnc23)ncc1C(=O)N[C@H]1CC[C@H](C(C)(C)O)CC1 [Example 104, 6-(6-cyanopyrazolo[1,5-a]pyrimidin-3-yl)-N-((1r,4r)-4-(2-hydroxypropan-2-yl)cyclohexyl)-4-(isopropylamino)nicotinamide]
8 | 0.82 | 7.8 | 0.003 | CC(C)(O)[C@H](F)CNC(=O)c1cnc(-c2cnc3cc(Cl)cnn23)cc1Nc1cnn(C(F)F)c1 [Example 270, (R)-6-(7-chloroimidazo[1,2-b]pyridazin-3-yl)-4-((1-(difluoromethyl)-1H-pyrazol-4-yl)amino)-N-(2-fluoro-3-hydroxy-3-methylbutyl) nicotinamide]
9 | 0.35 | < 1.5 | 0.002 | CC(C)(O)[C@H](F)CNC(=O)c1cnc(-c2cnn3cc(Cl)cnc23)cc1Nc1ccc(C(N)=O)cc1 [Example 33, (R)-4-((4-carbamoylphenyl)amino)-6-(6-chloropyrazolo[1,5-a]pyrimidin-3-yl)-N-(2-fluoro-3-hydroxy-3-methylbutyl) nicotinamide]
10 | 0.58 | < 1.5 | 0.006 | CC(O)CCNc1cc(-c2cnn3cc(Cl)cnc23)ncc1C(=O)NC[C@@H](F)C(C)(C)O (stereo partly drawn) [Example 82, 6-(6-chloropyrazolo[1,5-a]pyrimidin-3-yl)-N—((R)-2-fluoro-3-hydroxy-3-methylbutyl)-4-((3-hydroxybutyl)amino)nicotinamide]
